Results as given in US11149037B2, “Pyrazole MAGL inhibitors” (H. Lundbeck A/S, priority 2017, dated 2021).

Experiments:
Type in all cases: biochemical
MAGL [1] = target: MAGL (Mus musculus (Mouse), UniProt O35678); assay: In vitro competitive activity-based protein profiling, mouse proteomes (brain membrane fraction or cell lysates); conditions: mouse proteome, read-out: MAGL % inh. 1 μM (mouse)
Protocol: (§1) In Vitro Competitive Activity-Based Protein Profiling.
(§2) Proteomes (mouse brain membrane fraction or cell lysates for mouse assays; human prefrontal cortex or PC3 cell membrane fractions for human assays) (50 μL, 1.0 or 2.0 mg/mL total protein concentration) were preincubated with varying concentrations of inhibitors at 37° C. After 30 min, FP-Rh or JW912 or HT-01 (1.0 μL, 50 μM in DMSO) was added and the mixture was incubated for another 30 min at 37° C. Reactions were quenched with SDS loading buffer (15 μL-4×) and run on SDS-PAGE. Following gel imaging, serine hydrolase activity was determined by measuring fluorescent intensity of gel bands corresponding to MAGL and FAAH using ImageJ 1.43u software.

FAAH = FAAH (Mus musculus (Mouse), UniProt O08914); assay: as above; conditions: mouse proteome, read-out: FAAH % inh. 1 μM (mouse)
Protocol: as §1, §2

MAGL [2] = target: MAGL (Homo sapiens (Human), UniProt Q99685); assay: In vitro competitive activity-based protein profiling, human proteomes (prefrontal cortex or PC3 cell membrane fractions); conditions: human proteome; for inhibition at 1 µM: read-out: MAGL % inh. 1 μM (human)
Protocol: as §1, §2

Sequence of MAGL (Homo sapiens (Human), UniProt Q99685) (Q99685 whole entry): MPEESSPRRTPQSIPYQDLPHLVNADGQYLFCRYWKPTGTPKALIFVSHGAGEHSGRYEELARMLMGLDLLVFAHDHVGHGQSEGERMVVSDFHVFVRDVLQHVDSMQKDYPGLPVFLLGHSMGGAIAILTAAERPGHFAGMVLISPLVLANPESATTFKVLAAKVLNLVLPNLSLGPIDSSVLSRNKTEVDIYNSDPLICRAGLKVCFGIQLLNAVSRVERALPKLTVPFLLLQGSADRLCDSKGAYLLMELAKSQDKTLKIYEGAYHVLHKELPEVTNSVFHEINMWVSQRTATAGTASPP
Sequence of MAGL (Mus musculus (Mouse), UniProt O35678) (O35678 whole entry): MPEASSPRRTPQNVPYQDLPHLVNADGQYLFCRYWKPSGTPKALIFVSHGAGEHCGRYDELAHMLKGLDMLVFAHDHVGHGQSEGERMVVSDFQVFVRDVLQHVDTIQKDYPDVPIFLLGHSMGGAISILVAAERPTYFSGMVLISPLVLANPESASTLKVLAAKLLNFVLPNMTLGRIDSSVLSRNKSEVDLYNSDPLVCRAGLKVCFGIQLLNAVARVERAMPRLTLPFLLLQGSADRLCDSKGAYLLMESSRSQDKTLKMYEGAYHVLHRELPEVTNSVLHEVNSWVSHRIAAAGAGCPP
Sequence of FAAH (O08914 whole entry): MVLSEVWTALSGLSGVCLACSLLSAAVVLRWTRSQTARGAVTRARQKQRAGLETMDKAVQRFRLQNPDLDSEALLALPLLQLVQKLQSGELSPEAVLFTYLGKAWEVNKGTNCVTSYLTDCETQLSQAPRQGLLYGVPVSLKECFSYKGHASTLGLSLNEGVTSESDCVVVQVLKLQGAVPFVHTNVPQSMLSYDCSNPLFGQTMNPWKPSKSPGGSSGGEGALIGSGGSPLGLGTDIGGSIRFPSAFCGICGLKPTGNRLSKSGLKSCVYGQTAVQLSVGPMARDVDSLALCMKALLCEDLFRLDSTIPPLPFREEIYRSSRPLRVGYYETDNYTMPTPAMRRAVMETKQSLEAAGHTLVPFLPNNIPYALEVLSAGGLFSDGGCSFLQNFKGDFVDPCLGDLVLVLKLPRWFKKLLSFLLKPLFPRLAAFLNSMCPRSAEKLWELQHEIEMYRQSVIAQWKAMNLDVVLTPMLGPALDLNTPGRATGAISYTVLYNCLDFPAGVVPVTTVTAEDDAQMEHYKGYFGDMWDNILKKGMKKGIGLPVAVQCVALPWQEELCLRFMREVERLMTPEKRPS

SMILES	inhibition at 1 µM (MAGL [1])	inhibition at 1 µM (FAAH)	inhibition at 1 µM (MAGL [2])	IC50 (MAGL [2])	inhibition at 10 µM (MAGL [2]; 10 μM, read-out: MAGL % inh. (human) @ 10 μM)
CC(=O)Nc1ccn(C(=O)N2C[C@H]3C[C@H](N(C)Cc4ccccc4Cl)C[C@H]3C2)n1 [Example 36, N-(1-((3aR,5s,6aS)-5-((2-Chlorobenzyl)(methyl)amino)octahydrocyclopenta[c]pyrrole-2-carbonyl)-1H-pyrazol-3-yl)acetamide]	> 75%	> 75%	–	–	–
CC(=O)Nc1ccn(C(=O)N2C[C@H]3C[C@@H](N(C)Cc4ccccc4Cl)C[C@H]3C2)n1 [Example 37, N-(1-((3aR,5r,6aS)-5-((2-Chlorobenzyl)(methyl)amino)octahydrocyclopenta[c]pyrrole-2-carbonyl)-1H-pyrazol-3-yl)acetamide]	> 75%	> 75%	–	–	–
CN(Cc1cc(Cl)ccc1C(F)(F)F)CC1CCN(C(=O)n2ccc(NS(C)(=O)=O)n2)CC1 [Example 184, N-(1-(4-(((5-Chloro-2-(trifluoromethyl)benzyl)(methyl)amino)methyl)piperidine-1-carbonyl)-1H-pyrazol-3-yl)methanesulfonamide]	> 75%	–	> 75%	< 0.1 µM	–
C[C@H]1CN(C(=O)n2ccc(NS(C)(=O)=O)n2)CCN1Cc1ccc(C(F)(F)F)c(N2CCC(F)CC2)c1 [Example 187, (S)-N-(1-(4-(3-(4-Fluoropiperidin-1-yl)-4-(trifluoromethyl)benzyl)-3-methylpiperazine-1-carbonyl)-1H-pyrazol-3-yl)methanesulfonamide]	> 75%	–	> 75%	< 0.1 µM	–
CC(=O)Nc1ccn(C(=O)N2CC3CN(Cc4cc(C(F)(F)F)cc(C5(C(=O)O)CCCC5)c4)CC3C2)n1 (stereo not shown) [Example 191, 1-(3-((5-(3-Acetamido-1H-pyrazole-1-carbonyl)hexahydropyrrolo[3,4-c]pyrrol-2(1H)-yl)methyl)-5-(trifluoromethyl)phenyl)cyclopentane-1-carboxylic acid]	> 75%	–	> 75%	–	–
C[C@H]1CN(C(=O)n2ccc(NS(C)(=O)=O)n2)CCN1Cc1ccc(C(F)(F)F)c(N2CC[C@H](F)C2)c1 [Example 192, N-(1-((S)-4-(3-((S)-3-Fluoropyrrolidin-1-yl)-4-(trifluoromethyl)benzyl)-3-methylpiperazine-1-carbonyl)-1H-pyrazol-3-yl)methanesulfonamide]	> 75%	–	> 75%	–	–
CC(=O)Nc1ccn(C(=O)N2CCC(N(C)Cc3cc(C(F)(F)F)cc(C4(C(=O)O)CCCC4)c3)CC2)n1 [Example 193, 1-(3-(((1-(3-Acetamido-1H-pyrazole-1-carbonyl)piperidin-4-yl)(methyl)amino)methyl)-5-(trifluoromethyl)phenyl)cyclopentane-1-carboxylic acid]	> 75%	–	> 75%	–	–
C[C@H]1C[C@@H](N(C)Cc2ccc(Cl)c(N3CC4COCC4C3)c2)CCN1C(=O)n1ccc(NS(C)(=O)=O)n1 (stereo partly drawn) [Example 194, N-(1-((2S,4S)-4-((4-chloro-3-(Tetrahydro-1H-furo[3,4-c]pyrrol-5(3H)-yl)benzyl)(methyl)amino)-2-methylpiperidine-1-carbonyl)-1H-pyrazol-3-yl)methanesulfonamide]	0 to 25%	–	–	–	50 to 75%
CS(=O)(=O)Nc1ccn(C(=O)N2CCC3(CCCN3Cc3ccc(Cl)c(N4CCCC4)c3)CC2)n1 [Example 195, N-(1-(1-(4-Chloro-3-(pyrrolidin-1-yl)benzyl)-1,8-diazaspiro[4.5]decane-8-carbonyl)-1H-pyrazol-3-yl)methanesulfonamide]	> 75%	–	> 75%	–	–
CN(Cc1ccc(Cl)cc1N1CCC(F)CC1)C1(C)CCN(C(=O)n2ccc(NS(C)(=O)=O)n2)CC1 [Example 196, N-(1-(4-((4-Chloro-2-(4-fluoropiperidin-1-yl)benzyl)(methyl)amino)-4-methylpiperidine-1-carbonyl)-1H-pyrazol-3-yl)methanesulfonamide]	> 75%	–	> 75%	–	–
CN(Cc1ccc(Cl)cc1N1CCOCC1)C1(C)CCN(C(=O)n2ccc(NS(C)(=O)=O)n2)CC1 [Example 198, N-(1-(4-((4-Chloro-2-morpholinobenzyl)(methyl)amino)-4-methylpiperidine-1-carbonyl)-1H-pyrazol-3-yl)methanesulfonamide]	50 to 75%	–	> 75%	–	–
C[C@@H]1CCCN1c1cc(CN2CCN(C(=O)n3ccc(NS(C)(=O)=O)n3)C[C@@H]2C)ccc1Cl [Example 199, N-(1-((S)-4-(4-Chloro-3-((R)-2-methylpyrrolidin-1-yl)benzyl)-3-methylpiperazine-1-carbonyl)-1H-pyrazol-3-yl)methanesulfonamide]	> 75%	–	> 75%	–	–
C[C@@H]1CN(C(=O)n2ccc(NS(C)(=O)=O)n2)CCN1Cc1ccc(Cl)c(N2CCC[C@H]2C)c1 [Example 200, N-(1-((R)-4-(4-Chloro-3-((R)-2-methylpyrrolidin-1-yl)benzyl)-3-methylpiperazine-1-carbonyl)-1H-pyrazol-3-yl)methanesulfonamide]	> 75%	–	> 75%	–	–
C[C@@H]1CN(C(=O)n2ccc(NS(C)(=O)=O)n2)CCN1Cc1ccc(Cl)c(N2CCC(F)(F)CC2)c1 [Example 201, (R)-N-(1-(4-(4-Chloro-3-(4,4-difluoropiperidin-1-yl)benzyl)-3-methylpiperazine-1-carbonyl)-1H-pyrazol-3-yl)methanesulfonamide]	> 75%	–	> 75%	–	–
C[C@@H]1CN(C(=O)n2ccc(NS(C)(=O)=O)n2)CCN1Cc1ccc(Cl)c(N2CCC(C(F)(F)F)CC2)c1 [Example 202, (R)-N-(1-(4-(4-Chloro-3-(4-(trifluoromethyl)piperidin-1-yl)benzyl)-3-methylpiperazine-1-carbonyl)-1H-pyrazol-3-yl)methanesulfonamide]	> 75%	–	> 75%	–	–
CS(=O)(=O)Nc1ccn(C(=O)N2CCC(OCc3ccc(Cl)c(N4CCC(F)CC4)c3)CC2)n1 [Example 209, N-(1-(4-((4-Chloro-3-(4-fluoropiperidin-1-yl)benzyl)oxy)piperidine-1-carbonyl)-1H-pyrazol-3-yl)methanesulfonamide]	> 75%	–	> 75%	–	–
CS(=O)(=O)Nc1ccn(C(=O)N2CC[C@H](Oc3ccc(C(F)(F)F)c(N4CCC(F)CC4)c3)[C@@H](F)C2)n1 [Example 210, N-(1-((3S,4S)-3-Fluoro-4-(3-(4-fluoropiperidin-1-yl)-4-(trifluoromethyl)phenoxy)piperidine-1-carbonyl)-1H-pyrazol-3-yl)methanesulfonamide]	> 75%	–	> 75%	–	–
C[C@H]1CN(C(=O)n2ccc(NS(C)(=O)=O)n2)CCN1Cc1cc(N2CCC(F)CC2)c(Cl)cn1 [Example 223, (S)-N-(1-(4-((5-Chloro-4-(4-fluoro-piperidin-1-yl)pyridin-2-yl)methyl)-3-methyl-piperazine-1-carbonyl)-1H-pyrazol-3-yl)methane-sulfonamide]	> 75%	–	> 75%	–	–
C[C@@H]1CN(C(=O)n2ccc(NS(C)(=O)=O)n2)CCN1Cc1ccc(Cl)c(N2CCCC2)c1 [Example 224, (R)-N-(1-(4-(4-Chloro-3-(pyrrolidin-1-yl)benzyl)-3-methyl-piperazine-1-carbonyl)-1H-pyrazol-3-yl)methane-sulfonamide]	> 75%	–	> 75%	–	–
